Assay results as given in US8703796B2, “3H-imidazo [4, 5-B] pyridine-6-carboxamides as anti-inflammatory agents” (Boehringer Ingelheim International GmbH, priority 2008, dated 2014).

What follows are compounds tested against T1, recombinant human mPGES-1 (Homo sapiens, UniProt O14684) (assay: mPGES-1 inhibition, HTRF detection of PGE2).
T1 construct: made in house; host or cells: Rosetta E. coli (microsomal/membrane fraction)
T1 sequence (O14684 1-152): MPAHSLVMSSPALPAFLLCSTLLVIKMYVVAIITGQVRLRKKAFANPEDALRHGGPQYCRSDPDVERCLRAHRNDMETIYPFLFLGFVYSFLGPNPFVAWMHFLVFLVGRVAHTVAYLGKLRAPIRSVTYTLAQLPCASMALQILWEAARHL
Assay type: biochemical
Description: Microsomes from Rosetta E. coli bacteria expressing recombinant human mPGES-1 is dissolved in 0.1 M KPi pH 7.4 buffer containing 2.5 mM GSH. 50 μl of the enzyme is subsequently dispensed in a 384-well plate. 0.5 μl of the inhibitor dissolved in DMSO at is thereafter added to each well and incubated for 25 minutes at room temperature. Subsequently, 2 μl of PGH2 dissolved in an appropriate solvent is added to each well and after one minute the acidified stop solution containing FeCl2 is added. 4 μl of the total volume is transferred to a separate plate and diluted 750-fold in two separate steps before HTRF detection of PGE2.
The HTRf detection is performed by the use of a commercially available kit from CisBio essentially according to the manufacturer's protocol. Briefly, 10 μl of the diluted sample is transferred to a white 384-well plate. 5 μl of d2 and 5 μl Eu3+-Cryptate labeled anti-PGE2 is added to each well containing samples by the use of a Multidrop. The plate is covered with a plastic self-adhesive film, centrifuged at 1200 rpm for 1 minute and subsequently stored at +4° C. over night.
After over night incubation the fluorescence is measured by the use of an appropriate microplate reader. The fluorescence of europium cryptate, and d2 are measured using the following excitation and emission wavelength, europium cryptate: λmax^ex=307 nm, λmax^em=620 nm and d2: λmax^ex=620 nm, λmax^em=665 nm), respectively. The extent of the specific FRET is measured as a ratio of the emission intensity at 665 nm vs. that at 620 nm. A standard curve using synthetic PGE2 is used to quantify the amount of PGE2 in unknown samples.

Compound	inhibition at 10 µM [%]	inhibition at 1 µM [%]
Cn1c(Nc2c(Cl)cncc2Cl)nc2cc(C(=O)NCc3ncccc3C(F)(F)F)c(OCC(F)(F)F)nc21 [Example 851, 2-(3,5-Dichloro-pyridin-4-ylamino)-5-(2,2,2-trifluoro-ethoxy)-N-((3-trifluoromethyl-pyridin-2-yl)-methyl)-3-methyl-3H-imidazo[4,5-b]pyridine-6-carboxamide]	98	–
COc1nc2c(cc1C(=O)NCc1ccccc1C(F)(F)F)nc(Nc1c(Cl)cccc1Cl)n2C [Example 861, 2-(2,6-Dichloro-phenylamino)-5-methoxy-N-(2-trifluoromethyl-benzyl)-3-methyl-3H-imidazo[4,5-b]pyridine-6-carboxamide]	100	–
O=C(Nc1ccc(Br)cc1)c1cc2nc(Nc3c(F)cccc3Cl)[nH]c2nc1OCC(F)F [Example 776, N-(4-Bromo-phenyl)-2-(2-fluoro-6-chloro-phenylamino)-5-(2,2-difluoroethoxy)-3H-imidazo[4,5-b]pyridine-6-carboxamide]	–	100
Cn1c(Nc2c(Cl)cnc(Cl)c2Cl)nc2cc(C(=O)N[C@H]3CC[C@H](C(F)(F)F)CC3)c(OCC(F)F)nc21 [Example 779, 2-(2,3,5-Trichloro-pyridin-4-yl-amino)-5-(2,2-difluoro-ethoxy)-N-(trans-4-trifluoromethyl-cyclohexyl)-3-methyl-3H-imidazo[4,5-b]pyridine-6-carboxamide]	–	96
O=C(N[C@H]1CC[C@H](C(F)(F)F)CC1)c1cc2nc(Nc3c(Cl)cc(F)cc3Cl)[nH]c2nc1OCC(F)F [Example 823, 2-(2,6-Dichloro-4-fluoro-phenylamino)-5-(2,2-difluoro-ethoxy)-N-(trans-4-trifluoromethyl-cyclohexyl)-3H-imidazo[4,5-b]pyridine-6-carboxamide]	91	–
Cn1c(Nc2c(Cl)cc(F)cc2Cl)nc2cc(C(=O)NCC(F)(F)C(F)(F)C(F)(F)C(F)(F)F)c(OCC(F)F)nc21 [Example 872, 2-(2,6-Dichloro-4-fluoro-phenylamino)-5-(2,2-difluoro-ethoxy)-N-(2,2,3,3,4,4,5,5,5-nonafluoropentyl)-3-methyl-3H-imidazo[4,5-b]pyridine-6-carboxamide]	100	–
O=C(NCc1ccccc1C(F)(F)F)c1cc2nc(Nc3c(Cl)cncc3Cl)[nH]c2nc1OCC(F)F [Example 805, 2-(3,5-Dichloro-pyridin-4-ylamino)-5-(2,2-difluoro-ethoxy)-N-((2-trifluoromethyl-phenyl)-methyl)-3H-imidazo[4,5-b]pyridine-6-carboxamide]	98	–
Cn1c(Nc2c(Cl)cncc2Cl)nc2cc(C(=O)Nc3ccc(Br)cc3)c(OC3CCOC3)nc21 (stereo not shown) [Example 848, 2-(3,5-Dichloro-pyridin-4-ylamino)-5-(tetrahydrofuran-3-yl-oxy)-N-(4-bromo-phenyl)-3-methyl-3H-imidazo[4,5-b]pyridine-6-carboxamide]	100	–
O=C(NCc1ccccc1C(F)(F)F)c1cc2nc(Nc3c(Cl)cc(F)cc3Cl)[nH]c2nc1OCC(F)F [Example 824, 2-(2,6-Dichloro-4-fluoro-phenylamino)-5-(2,2-difluoro-ethoxy)-N-(2-trifluoromethyl-benzyl)-3H-imidazo[4,5-b]pyridine-6-carboxamide]	100	–
Cn1c(Nc2ccccc2C(F)(F)F)nc2cc(C(=O)N[C@H]3CC[C@H](C(F)(F)F)CC3)c(OCC(F)F)nc21 [Example 782, 2-(2-Trifluoromethyl-phenylamino)-5-(2,2-difluoro-ethoxy)-N-(trans-4-trifluoromethyl-cyclohexyl)-3-methyl-3H-imidazo[4,5-b]pyridine-6-carboxamide]	100	–
CC1(C)CCC(NC(=O)c2cnc3[nH]c(Nc4c(Cl)cccc4Cl)nc3c2)CC1 [Example 429, 2-(2,6-Dichlorophenylamino)-N-(4,4-dimethylcyclohexyl)-3H-imidazo[4,5-b]pyridine-6-carboxamide]	97	–
Cn1c(Nc2c(F)cccc2Cl)nc2cc(C(=O)N[C@H]3CC[C@H](C)CC3)cnc21 [Example 486, 2-(2-Chloro-6-fluorophenylamino)-3-methyl-N-((1r,4r)-4-methycyclohexyl)-3H-imidazo[4,5-b]pyridine-6-carboxamide]	100	–
Cn1c(Nc2c(Cl)cncc2Cl)nc2cc(C(=O)N[C@H]3CC[C@H](C(F)(F)F)CC3)c(OCCF)nc21 [Example 833, 2-(3,5-Dichloro-pyridin-4-ylamino)-5-(2-fluoro-ethoxy)-N-(trans-4-trifluoromethyl-cyclohexyl)-3-methyl-3H-imidazo[4,5-b]pyridine-6-carboxamide]	100	–
Cn1c(Nc2c(Cl)ccc(Cl)c2F)nc2cc(C(=O)N[C@H]3CC[C@H](C(F)(F)F)CC3)c(OCC(F)F)nc21 [Example 787, 2-(3,6-Dichloro-2-fluoro-phenylamino)-5-(2,2-difluoro-ethoxy)-N-(trans-4-trifluoromethyl-cyclohexyl)-3-methyl-3H-imidazo[4,5-b]pyridine-6-carboxamide]	98	–
CCCCCCCNC(=O)c1cnc2c(c1)nc(Nc1c(Cl)cccc1Cl)n2C [Example 448, 2-(2,6-Dichlorophenylamino)-N-heptyl-3-methyl-3H-imidazo[4,5-b]pyridine-6-carboxamide]	100	–
CC(C)(C)[C@H]1CC[C@H](NC(=O)c2cnc3[nH]c(Nc4c(Cl)cccc4Cl)nc3c2)CC1 [Example 379, N-((1r,4r)-4-tert.-Butylcyclohexyl)-2-(2,6-dichlorophenylamino)-3H-imidazo[4,5-b]pyridine-6-carboxamide]	100	–
O=C(N[C@H]1CC[C@H](C(F)F)CC1)c1cnc2[nH]c(Nc3c(Cl)cccc3Cl)nc2c1 [Example 535, 2-(2,6-Dichlorophenylamino)-N-((1r,4r)-4-(difluoromethyl)cyclohexyl)-3H-imidazo[4,5-b]pyridine-6-carboxamide]	100	–
Cn1c(Nc2c(Cl)cc(F)cc2Cl)nc2cc(C(=O)Nc3cc(C(F)(F)F)ccn3)c(OCC(F)F)nc21 [Example 817, 2-(2,6-Dichloro-4-fluoro-phenylamino)-5-(2,2-difluoro-ethoxy)-N-(4-trifluoromethyl-pyridin-2-yl)-3-methyl-3H-imidazo[4,5-b]pyridine-6-carboxamide]	96	–
Cn1c(Nc2c(Cl)cc(F)cc2Cl)nc2cc(C(=O)NCC(F)(F)C(F)(F)C(F)(F)C(F)(F)F)c(OCC(F)(F)F)nc21 [Example 873, 2-(2,6-Dichloro-4-fluoro-phenylamino)-5-(2,2,2-trifluoro-ethoxy)-N-(2,2,3,3,4,4,5,5,5-nonafluoropentyl)-3-methyl-3H-imidazo[4,5-b]pyridine-6-carboxamide]	100	–
CCOc1nc2[nH]c(Nc3c(Cl)cncc3Cl)nc2cc1C(=O)N[C@H]1CC[C@H](C(F)(F)F)CC1 [Example 842, 2-(3,5-Dichloro-pyridin-4-ylamino)-5-ethoxy-N-(trans-4-trifluoromethyl-cyclohexyl)-3H-imidazo[4,5-b]pyridine-6-carboxamide]	92	–
Cn1c(Nc2c(Cl)cncc2Cl)nc2cc(C(=O)NCc3ncccc3C(F)(F)F)c(OC3CCOC3)nc21 (stereo not shown) [Example 847, 2-(3,5-Dichloro-pyridin-4-ylamino)-5-(tetrahydrofuran-3-yl-oxy)-N-((3-trifluoromethyl-pyridin-2-yl)-methyl)-3-methyl-3H-imidazo[4,5-b]pyridine-6-carboxamide]	100	–
Cc1cc(C)c(Nc2nc3cc(C(=O)N[C@H]4CC[C@H](C(F)(F)F)CC4)c(OCC(F)F)nc3[nH]2)c(Cl)n1 [Example 793, 2-(2-Chloro-4,6-dimethyl-pyridin-3-ylamino)-5-(2,2-difluoro-ethoxy)-N-(trans-4-trifluoromethyl-cyclohexyl)-3H-imidazo[4,5-b]pyridine-6-carboxamide]	94	–
CC(C)[C@H]1CC[C@H](NC(=O)c2cnc3c(c2)nc(Nc2c(Cl)cccc2Cl)n3C)CC1 [Example 400, 2-(2,6-Dichlorophenylamino)-N-((1r,4r)-4-isopropylcyclohexyl)-3-methyl-3H-imidazo[4,5-b]pyridine-6-carboxamide]	97	–
CN(C)CCOc1nc2[nH]c(Nc3c(Cl)cc(F)cc3Cl)nc2cc1C(=O)N[C@H]1CC[C@H](C(F)(F)F)CC1 [Example 864, 2-(2,6-Dichloro-4-fluoro-phenylamino)-5-(2-dimethylamino-ethoxy)-N-(trans-4-trifluoromethyl-cyclohexyl)-3H-imidazo[4,5-b]pyridine-6-carboxamide]	91	–
COCCOc1nc2[nH]c(Nc3c(Cl)cncc3Cl)nc2cc1C(=O)Nc1ccc(Br)cc1 [Example 801, 2-(3,5-Dichloro-pyridin-4-ylamino)-5-(2-methoxy-ethoxy)-N-(4-bromo-phenyl)-3H-imidazo[4,5-b]pyridine-6-carboxamide]	96	–
